Source: PubChem BioAssay (NCI)
Several values for one entry are separate records, joined by “and”; a condition that tells them apart may be missing. Equal entries are not always repeated.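 Briefly, cells in 96-well plates were exposed to five compound concentrations for 48 h, and endpoints were estimated by linear interpolation. Here, GI50 denotes the concentration required for 50% inhibition of growth. TGI: total growth inhibition.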

How the values were obtained:
Assay in all cases: NCI-60 cell line screen, 48 h
[1] = system: SF-295 CNS
[2] = system: OVCAR-4 ovarian
[3] = system: 786-0 renal
[4] = system: CAKI-1 renal
[5] = system: MALME-3M melanoma
[6] = system: UO-31 renal
[7] = system: LOX IMVI melanoma
[8] = system: SF-539 CNS
[9] = system: SK-MEL-28 melanoma
[10] = system: OVCAR-8 ovarian

| SMILES | GI50 [1] | TGI [1] | GI50 [2] | TGI [2] | GI50 [3] | TGI [3] | GI50 [4] | TGI [4] | GI50 [5] | TGI [5] | GI50 [6] | TGI [6] | TGI [7] | GI50 [8] | TGI [8] | GI50 [9] | TGI [9] | GI50 [10] | TGI [10] | GI50 [7] |
| --- | --- | --- | --- | --- | --- | --- | --- | --- | --- | --- | --- | --- | --- | --- | --- | --- | --- | --- | --- | --- |
| O=C1NC(=O)C2C3C=CC(C12)C1C2C(=O)NC(=O)C2C31 (stereo not drawn) | 827 µM | 199 µM and > 1000 µM | > 1000 µM | 250 µM and > 1000 µM | > 250 µM | > 1000 µM | 568 µM | 250 µM and > 1000 µM | > 785 µM | 250 µM and > 1000 µM | 596 µM | 250 µM and > 1000 µM | > 85.7 µM and 250 µM and > 1000 µM | 316 µM | 199 µM and > 1000 µM | 938 µM | 244 µM and > 1000 µM | 880 µM | 206 µM and > 1000 µM | – |
| COC(=O)N/N=C(\C)c1sc(-c2nc(C)c(/C(C)=N/NC(=O)OC)s2)nc1C | – | > 100 µM | – | > 100 µM | – | > 100 µM | – | > 100 µM | – | > 100 µM | – | > 100 µM | > 100 µM | – | > 100 µM | – | > 100 µM | – | > 100 µM | – |
| CCCCCCCCCCN=C(N)c1ccc(N2CCN(c3ccc(C(N)=NCCCCCCCCCC)cc3)CC2)cc1 | 1.81 µM | 6.12 µM | 6.5 µM | > 50 µM | 16 µM | > 50 µM | 17.9 µM | > 50 µM | 6.25 µM | 17 µM | 22.6 µM | > 50 µM | > 50 µM | 1.72 µM | 6.76 µM | 4.76 µM | 36 µM | 2.62 µM | > 50 µM | 3.5 µM |
| COc1ccc(C(C)Nc2cc(OC)c(OC)c(OC)c2)cc1 (stereo not drawn) | – | 7.53 µM | – | 63.8 µM | – | > 100 µM | – | > 100 µM | – | > 29.7 µM | – | > 100 µM | > 92.6 µM | – | 12.8 µM | – | > 100 µM | – | > 100 µM | – |
| O=C1c2ccccc2-c2c1c1c(O)cccc1n2Cc1ccccc1 | 6.12 µM | 18.4 µM | 7.14 µM | 43.9 µM | 15.6 µM | 31.9 µM | 7.15 µM | 20.8 µM | 2.76 µM | 8.65 µM | 21.8 µM | > 100 µM | > 100 µM | 14.2 µM | 35.3 µM | 20.8 µM | 62.4 µM | 28.6 µM | > 100 µM | 10.1 µM |
| Cn1cc(-c2ccc3c(c2)ncn3-c2cc(NS(=O)(=O)C3CC3)cc(-c3ccc(F)cc3F)c2)cn1 | 8.18 µM | 37.2 µM | 3.45 µM | > 100 µM | 6.05 µM | > 100 µM | 3.77 µM | > 100 µM | 22.7 µM | 63.8 µM | 0.635 µM | 36.7 µM | 42 µM | 1.37 µM | 12.7 µM | 20.9 µM | > 100 µM | 15.4 µM | > 100 µM | 5.75 µM |
| N#Cc1c(CC(=O)O)cc(=O)n2c1[nH]c1ccccc12 | – | > 100 µM | – | > 100 µM | – | > 100 µM | – | > 100 µM | – | > 100 µM | – | > 100 µM | > 100 µM | – | > 100 µM | – | > 100 µM | – | > 100 µM | – |
| Nc1cc(C(F)(F)F)c(-c2nc(N3CCOCC3)nc(N3CCOCC3)n2)cn1 | 0.226 µM | 1.75 µM | 0.667 µM | > 31.1 µM | 0.482 µM | 6.33 µM | 0.502 µM | > 71.7 µM | 0.0983 µM | 0.561 µM | 0.111 µM | 2.08 µM | > 35.1 µM | 0.539 µM | 3.54 µM | 0.248 µM | 3.71 µM | 0.89 µM | > 66.1 µM | – |
| COc1ccc(-n2c(=O)c3ccccc3n(Cc3ccc(C(=O)NO)cc3)c2=O)cc1 | 1.81 µM | 3.54 µM | 2.86 µM | 20 µM | 2.53 µM | 7.09 µM | 6.39 µM | 23.9 µM | 1.58 µM | 5.92 µM | 6.58 µM | 21.5 µM | 3.24 µM | 1.93 µM | 5.25 µM | 2.18 µM | 5.83 µM | 1.8 µM | 5.88 µM | 1.76 µM |
| Cc1cccc(Oc2ccc(Nc3ncnc4ccc(NC(=O)CN(C)C)cc34)cc2Cl)c1 | 1.66 µM | 3.2 µM | 1.7 µM | 5.59 µM | 1.59 µM | 3.16 µM | 1.1 µM | 2.97 µM | 1.72 µM | 3.35 µM | 1.12 µM | 2.47 µM | 2.86 µM | 1.82 µM | 3.42 µM | 1.85 µM | 3.48 µM | 2.72 µM | 11.3 µM | 1.53 µM |
| O=C(CC1(O)C(=O)Nc2c(Cl)ccc(Cl)c21)c1ccc(Cl)cc1 (stereo not drawn) | – | 83.4 µM | – | 41.4 µM | – | 32.1 µM | – | > 100 µM | – | 71.8 µM | – | > 100 µM | 37.3 µM | – | 50.6 µM | – | > 100 µM | – | 42.1 µM | – |
| COc1cc(/C=C/c2cc(/C=C/c3ccc(O)c(OC)c3)n(C(=O)Nc3ccc(C)cc3)n2)ccc1O | 1.71 µM | 6.34 µM | 0.697 µM | 5.95 µM | 0.412 µM | 1.81 µM | 0.311 µM | 6.95 µM | 0.924 µM | 3.57 µM | 0.272 µM | 1.72 µM | 2.62 µM | 0.442 µM | 2.47 µM | 0.797 µM | 6.87 µM | 0.465 µM | 2.59 µM | 0.501 µM |
| O=c1c2cc(Br)ccc2nc(CNc2ccccc2)n1-c1ccccc1 | – | > 58 µM | – | 23 µM | – | 28.4 µM | – | 11.6 µM | – | 28.4 µM | – | > 57.8 µM | 19.6 µM | – | 32.7 µM | – | > 65.6 µM | – | > 57 µM | – |
| OC[C@H]1C[C@](O)(c2ccc(F)cc2)[C@@H](c2ccc(F)cc2)O1 | > 100 µM | > 100 µM | > 100 µM | > 100 µM | > 100 µM | > 100 µM | > 100 µM | > 100 µM | > 100 µM | > 100 µM | > 100 µM | > 100 µM | > 100 µM | > 100 µM | > 100 µM | > 100 µM | > 100 µM | > 100 µM | > 100 µM | > 100 µM |
| CC(=O)O[C@H]([C@H](OC(C)=O)[C@H](C)OC(C)=O)[C@@H](/C=C/[C@H]1CC=CC(=O)O1)OC(C)=O | 20.6 µM | 59.8 µM | 34.7 µM | > 100 µM | 97.3 µM | > 100 µM | 79.7 µM | > 100 µM | > 100 µM | > 100 µM | > 100 µM | > 100 µM | > 100 µM | 37.2 µM | > 100 µM | 39.2 µM | > 100 µM | 51.2 µM | > 100 µM | 55.1 µM |
| CN1CCN(C(=O)/C=C/c2ccc([N+](=O)[O-])o2)CC1 | 27.9 µM | > 100 µM | 14.2 µM | 27.9 µM | 18.6 µM | 36.7 µM | 10.6 µM | 34.3 µM | 3.76 µM | 14.3 µM | 13.4 µM | 30.1 µM | 17 µM | 15 µM | 45 µM | 9.59 µM | 49.3 µM | 18.5 µM | > 100 µM | 4.46 µM |
| O=C1C[C@@H]2OCC=C3C[N+]4([O-])CC[C@]56c7ccccc7N1[C@H]5[C@H]2[C@H]3C[C@@H]64 (stereo partly drawn) | > 100 µM | > 100 µM | > 100 µM | > 100 µM | > 100 µM | > 100 µM | > 100 µM | > 100 µM | > 100 µM | > 100 µM | > 100 µM | > 100 µM | > 100 µM | > 100 µM | > 100 µM | > 100 µM | > 100 µM | > 100 µM | > 100 µM | > 100 µM |
| Nc1ccccc1C(=O)/C=C/c1ccccc1O | – | > 100 µM | – | > 100 µM | – | > 100 µM | – | > 100 µM | – | > 100 µM | – | > 100 µM | > 100 µM | – | > 100 µM | – | > 100 µM | – | > 100 µM | – |
| CN(C)[C@@H]1C(=O)C(C(=O)NCc2nc3[nH]cnc(=S)c3[nH]2)=C(O)[C@@]2(O)C(=O)C3=C(O)c4c(O)cccc4[C@@](C)(O)[C@H]3C[C@@H]12 | > 100 µM | > 100 µM | 1.13 µM | > 100 µM | 3.78 µM | > 100 µM | 3 µM | > 100 µM | > 100 µM | > 100 µM | 3.69 µM | > 100 µM | > 100 µM | 3.67 µM | > 100 µM | > 100 µM | > 100 µM | 6.78 µM | > 100 µM | 1.23 µM |
| COc1cc(NC(=O)COc2ccccc2)c(C(N)=O)cc1OC | 0.93 µM | 16.6 µM | > 100 µM | > 100 µM | 7.32 µM | 38.8 µM | 3.8 µM | > 100 µM | 4 µM | > 100 µM | 13.5 µM | > 100 µM | > 100 µM | 0.563 µM | 3.59 µM | 24.2 µM | > 100 µM | 3.01 µM | > 100 µM | 1.81 µM |
| CN(C)c1ccc(/C=C2\CCc3ccccc3C2=O)cc1Br | – | > 100 µM | – | > 100 µM | – | > 100 µM | – | > 100 µM | – | > 100 µM | – | > 100 µM | > 100 µM | – | > 100 µM | – | > 100 µM | – | > 100 µM | – |
| CN(C)CCCC1(c2ccc(F)cc2)OCc2cc(-c3csc4ccccc34)ccc21 (stereo not drawn) | 1.64 µM | 3.04 µM | 1.68 µM | 3.28 µM | 1.84 µM | 3.63 µM | 1.62 µM | 3.05 µM | 1.43 µM | 2.94 µM | 1.25 µM | 2.62 µM | 3.16 µM | 1.71 µM | 3.08 µM | 1.68 µM | 3.07 µM | 1.87 µM | 3.84 µM | 1.65 µM |
| COc1ccc(Cn2c(Br)c3c(c2-c2cc(OC)c(OC)c(OC)c2)CCc2sc(N)nc2-3)cc1 | 0.556 µM | 7.57 µM | 2.5 µM | > 57.3 µM | 2.17 µM | > 49.8 µM | 0.765 µM | > 28.2 µM | 0.438 µM | 28.5 µM | 1.5 µM | 17.9 µM | 6.14 µM | 1.16 µM | 10.5 µM | 4.76 µM | 33.6 µM | 1.32 µM | 16.9 µM | 0.869 µM |
| CC(=O)NC(CCCNC(=O)OCc1ccccc1)C(=O)NCc1ccccc1 (stereo not drawn) | – | > 100 µM | – | > 100 µM | – | > 100 µM | – | > 100 µM | – | > 100 µM | – | > 100 µM | > 100 µM | – | > 100 µM | – | > 100 µM | – | > 100 µM | – |
